Common to all, as to type: functional, cell-based
One assay concerns HCT-116. Briefly: Antiproliferative activity against human HCT-116 cells after 48 hrs by MTT assay. Conditions: HCT-116, 48 h.
For the next assay, the system named is HeLa. Briefly: Antiproliferative activity against human HeLa cells after 48 hrs by MTT assay.
The next assay has as its system HepG2. Briefly: Antiproliferative activity against human HepG2 cells after 48 hrs by MTT assay. Conditions: HepG2, 48 h.
In a further assay the test system is MCF7. Briefly: Antiproliferative activity against human MCF7 cells after 48 hrs by MTT assay. To be noted: MCF7, 48 h.

Results on 7 molecules are retold here after ChEMBL document CHEMBL5143557, “Synthesis and biological evaluation of 3β-O-neoglycosides of caudatin and its analogues as potential anticancer agents” (Bioorg Med Chem, 2022).

pIC50: −log10 of the molar value.

On to `CC(=O)O[C@@H]1[C@@H](OC(C)=O)[C@H](C)O[C@@H](O[C@H]2CC[C@@]3(C)C(=CC[C@]4(O)[C@@H]3C[C@@H](OC(=O)/C=C/c3ccccc3)[C@@]3(C)[C@]4(O)CC[C@@]3(O)[C@H](C)OC(=O)c3cccnc3)C2)[C@@H]1OC(C)=O`, for which the pIC50 in the assay on HCT-116 was 4.15; in the assay with HeLa, < 4.00; in the assay with HepG2, 4.16; in the assay with MCF7 it was < 4.00.
As to `CC(=O)OC[C@H]1O[C@@H](O[C@H]2CC[C@@]3(C)C(=CC[C@]4(O)[C@@H]3C[C@@H](OC(=O)/C=C/c3ccccc3)[C@@]3(C)[C@]4(O)CC[C@@]3(O)[C@H](C)OC(=O)c3cccnc3)C2)[C@H](OC(C)=O)[C@@H](OC(C)=O)[C@@H]1OC(C)=O`, the pIC50 is 4.44 with HCT-116, 4.10 with HeLa, 4.58 with HepG2 and 4.08 in the assay with MCF7.
On to `CC(=O)OC[C@H]1O[C@@H](O[C@H]2CC[C@@]3(C)C(=CC[C@]4(O)[C@@H]3C[C@@H](OC(=O)/C=C/c3ccccc3)[C@@]3(C)[C@]4(O)CC[C@@]3(O)[C@H](C)OC(=O)c3cccnc3)C2)[C@H](OC(C)=O)[C@@H](OC(C)=O)[C@H]1OC(C)=O`, for which the pIC50 with HCT-116 was 5.15; with HeLa, 4.68; in the assay with HepG2, 5.07; in the assay on MCF7, 4.61.
Consider `CC(=O)[C@]1(O)CC[C@@]2(O)[C@]1(C)[C@H](OC(=O)c1ccc(O)cc1)C[C@@H]1[C@@]3(C)CC[C@H](O[C@@H]4O[C@@H](C)[C@H](O)[C@@H](O)[C@H]4O)CC3=CC[C@]12O`, for which the pIC50 with HCT-116 was 4.22; in the assay with HeLa, 4.04; with HepG2 it was 4.26; in the assay on MCF7 it was 4.05.
For the molecule `CC(=O)O[C@@H]1[C@@H](OC(C)=O)[C@H](O[C@H]2CC[C@@]3(C)C(=CC[C@]4(O)[C@@H]3C[C@@H](OC(=O)/C=C/c3ccccc3)[C@@]3(C)[C@]4(O)CC[C@@]3(O)[C@H](C)OC(=O)c3cccnc3)C2)OC[C@H]1OC(C)=O`, the pIC50 in the assay on HCT-116 is 4.20; in the assay on HeLa, < 4.00; in the assay on HepG2, 4.15; with MCF7, < 4.00.
In the case of `CC(=O)[C@]1(O)CC[C@@]2(O)[C@]1(C)[C@H](OC(=O)/C=C(\C)C(C)C)C[C@@H]1[C@@]3(C)CC[C@H](O)CC3=CC[C@]12O` [CAUDATIN], the pIC50 was 4.19 with HCT-116, < 4.00 in the assay on HeLa, 4.18 with HepG2 and < 4.00 in the assay with MCF7.
On to `C[C@H](OC(=O)c1cccnc1)[C@]1(O)CC[C@@]2(O)[C@]1(C)[C@H](OC(=O)/C=C/c1ccccc1)C[C@@H]1[C@@]3(C)CC[C@H](O)CC3=CC[C@]12O` [GAGAMININ], for which the pIC50 in the assay with HCT-116 is 4.16; in the assay with HeLa, 4.02; with HepG2, 4.19; in the assay with MCF7, < 4.00.
